What all share (format): cell-based
Assay [1] relates to Dendritic cells + T cells + CD3/CD28 beads. Put plainly: CRS assay: dendritic cells + T cells + CD3/CD28 beads, IL2 ELISA. Conditions: Homo sapiens; same culture; IL-2 only produced by the activated T cells. The source says:
(§1) Human PBMC cells (PPA Research Group, Cat No. 15-00021); RPMI media 10% FBS; GMCSF (Peprotech, Cat No. 300-03) and IL4 (Peprotech Cat No. 200-04); White clear bottom 96 well plates (Fisher, Cat No. 07-200-587, Corning #3903); Human IL-2 DuoSet ELISA (R&D Systems, Cat No. DY202); Human IL-6 DuoSet ELISA (R&D Systems, Cat No. DY206); Cell Titer Glo reagent (Promega, Cat No. G7573); Dynabeads Human T-Activator CD3/CD28 (Fisher, Cat No. 111.61D); Anti-human CD3 (BD Biosciences, Cat No. 555336); CD28, Clone CD28.2 (Beckman Coulter Inc. Cat No. IM1376); Recombinant Human IL-2 Protein (R&D Systems, Cat No. 202-IL-500).
Human peripheral blood mononuclear cells (PBMC) (400 million) obtained from the vendor were transferred into three T-175 flasks containing 16 ml RPMI media (10% fetal bovine serum (FBS)) and incubated for 2 hours at 37° C. After 2 hours, floating PBL was removed and the cell was rinsed twice with 10 ml of media. The PBL and media was saved for T cell expansion. 16 ml of fresh RPMI media (10% FBS) containing Granulocyte Macrophage Colony—Stimulating Factor (GMCSF) (100 ng/ml) and IL4 (20 ng/ml) was added and the flask was kept in a 37° C. incubator. […]
(§2) After incubation, 80 μl of the supernatant was harvested from each well for IL6 ELISA and 80 μl of the supernatant for IL2 ELISA. […] The plate was read for luminescence intensity to determine the compound cytotoxicity.
(ELISA stands for enzyme-linked immunosorbent assay.)

For assay [2] the test system is unchanged. As to the kind of experiment: CRS assay: Cell Titer Glo compound cytotoxicity. Conditions: Homo sapiens, luminescence of the remaining culture, read-out: Cell Titer Glo 2 EC50.
Excerpt: as §1
After 4 days, the dendritic cells were harvested by spinning down (1000 rpm/10 min) and aspirating the media. After resuspending the cells in fresh RPMI media (10% FBS), the cells were plated (25K/well in 50 μl) onto a white clear bottom 96 well plate. […] of RPMI media containing 2× concentrated test compound was added per well to the above cell-culture media (final concentration becomes 1×) and the plates were pre-incubated for 1 hour at 37° C. […]
as §2
(In ATP-based viability assays light output follows the ATP content of the culture.)

Assay [3] has the same test system. As to the kind of experiment: CRS assay: dendritic cells + T cells + CD3/CD28 beads, IL6 ELISA. Conditions: human PBMC-derived dendritic cells, 1 hour compound pre-incubation, overnight with T cells and CD3/CD28 beads; IL-6 primarily produced by the dendritic cells.

Regarding `COc1cc(Nc2ncc(C)c(Nc3ccc4oc(=O)[nH]c4c3)n2)cc(C)c1F` [Compound I-432, 5-(2-(4-fluoro-3-methoxy-5-methylphenylamino)-5-methylpyrimidin-4-ylamino)benzo[d]oxazol-2(3H)-one], the figures for the concentration for a half-maximal effect (EC50) in assay [1], in assay [2] and in assay [3] were 4.41 µM, 4.55 µM and 0.052 µM, respectively.
Take `CCO[C@H]1CC[C@H](n2cc(NC(=O)c3csc(-c4cn[nH]c4)n3)c(-c3nc(F)ccc3F)n2)CC1` [VI-176, N-(3-(3,6-difluoropyridin-2-yl)-1-((1r,4r)-4-ethoxycyclohexyl)-1H-pyrazol-4-yl)-2-(1H-pyrazol-4-yl)thiazole-4-carboxamide]: the concentration for a half-maximal effect (EC50) (commonly the concentration needed to bring the measured effect to its halfway point) came out at 6.9 µM in assay [1], 12 µM in assay [2] and 0.195 µM in assay [3].
